# Results: patent US8183351B2, “Avermectin derivatives” (Bayer Cropscience AG, priority 2006, dated 2012)
# Test system: caterpillars of the army worm (Spodoptera frugiperda)
# Test: Spodoptera frugiperda test (SPODFR spray treatment)
# Assay type: in vivo
# Details: Example I; 4 ppm active compound; sprayed maize leaf discs
# Procedure: Spodoptera frugiperda Test (SPODFR Spray Treatment)
# • Solvents: 78.0 parts by weight of acetone • 1.5 parts by weight of dimethylformamide • Emulsifier: 0.5 part by weight of alkylaryl polyglyycol ether
# After the desired period of time, the effect in % is determined. 100% means that all caterpillars have been killed; 0% means that none of the caterpillars have been killed.
row,Structure (SMILES),Kill rate in % after 5 days
1,CC[C@H](C)[C@H]1OC2(C=C[C@@H]1C)C[C@@H]1C[C@@H](C/C=C(\C)[C@@H](OC3CC(OC)C(OC(=O)c4ccc(F)cc4)C(C)O3)[C@@H](C)/C=C/C=C3\CO[C@@H]4[C@H](O)C(C)=CC(C(=O)O1)[C@]34O)O2 (stereo partly drawn) [Example 99],100%
2,CC[C@H](C)[C@H]1OC2(C=C[C@@H]1C)C[C@@H]1C[C@@H](C/C=C(\C)[C@@H](OC3CC(OC)C(OC(=O)COC)C(C)O3)[C@@H](C)/C=C/C=C3\CO[C@@H]4[C@H](O)C(C)=CC(C(=O)O1)[C@]34O)O2 (stereo partly drawn) [Example 30],100%
3,"CC[C@H](C)[C@H]1O[C@]2(C=C[C@@H]1C)C[C@@H]1C[C@@H](C/C=C(\C)[C@@H](O[C@H]3C[C@H](OC)[C@@H](OC(=O)c4ccc(Cl)cc4)[C@H](C)O3)[C@@H](C)/C=C/C=C3\CO[C@@H]4[C@H](O)C(C)=C[C@@H](C(=O)O1)[C@]34O)O2 [4′-O-(4-chlorobenzoyl)-4′-O-de(2,6-dideoxy-3-O-methyl-α-L-arabino-hexopyranosyl)-5-O-demethyl-avermectin A1a, reference compound]",0%
4,CC[C@H](C)[C@H]1OC2(C=C[C@@H]1C)C[C@@H]1C[C@@H](C/C=C(\C)[C@@H](OC3CC(OC)C(OC(=O)CCn4ccnc4)C(C)O3)[C@@H](C)/C=C/C=C3\CO[C@@H]4[C@H](O)C(C)=CC(C(=O)O1)[C@]34O)O2 (stereo partly drawn) [Example 86],100%
5,CC[C@H](C)[C@H]1OC2(C=C[C@@H]1C)C[C@@H]1C[C@@H](C/C=C(\C)[C@@H](OC3CC(OC)C(OC(=O)COc4ccc(Cl)cc4)C(C)O3)[C@@H](C)/C=C/C=C3\CO[C@@H]4[C@H](O)C(C)=CC(C(=O)O1)[C@]34O)O2 (stereo partly drawn) [Example 39],100%
6,CC[C@H](C)[C@H]1OC2(C=C[C@@H]1C)C[C@@H]1C[C@@H](C/C=C(\C)[C@@H](OC3CC(OC)C(OC(=O)c4ccc(OC(F)(F)F)cc4)C(C)O3)[C@@H](C)/C=C/C=C3\CO[C@@H]4[C@H](O)C(C)=CC(C(=O)O1)[C@]34O)O2 (stereo partly drawn) [Example 97],33%
7,CC[C@H](C)[C@H]1OC2(C=C[C@@H]1C)C[C@@H]1C[C@@H](C/C=C(\C)[C@@H](OC3CC(OC)C(OC(=O)Cn4ccnc4)C(C)O3)[C@@H](C)/C=C/C=C3\CO[C@@H]4[C@H](O)C(C)=CC(C(=O)O1)[C@]34O)O2 (stereo partly drawn) [Example 49],100%
8,CC[C@H](C)[C@H]1OC2(C=C[C@@H]1C)C[C@@H]1C[C@@H](C/C=C(\C)[C@@H](OC3CC(OC)C(OC(=O)Cc4csc(-c5ccncc5)n4)C(C)O3)[C@@H](C)/C=C/C=C3\CO[C@@H]4[C@H](O)C(C)=CC(C(=O)O1)[C@]34O)O2 (stereo partly drawn) [Example 46],100%
9,CC[C@H](C)[C@H]1OC2(C=C[C@@H]1C)C[C@@H]1C[C@@H](C/C=C(\C)[C@@H](OC3CC(OC)C(OC(=O)Cc4nc(C)sc4C)C(C)O3)[C@@H](C)/C=C/C=C3\CO[C@@H]4[C@H](O)C(C)=CC(C(=O)O1)[C@]34O)O2 (stereo partly drawn) [Example 47],100%
10,CC[C@H](C)[C@H]1OC2(C=C[C@@H]1C)C[C@@H]1C[C@@H](C/C=C(\C)[C@@H](OC3CC(OC)C(OC(=O)C4CCC(=O)N4)C(C)O3)[C@@H](C)/C=C/C=C3\CO[C@@H]4[C@H](O)C(C)=CC(C(=O)O1)[C@]34O)O2 (stereo partly drawn) [Example 38],100%

# Test system: larvae of the mustard beetle (Phaedon cochleariae)
# Test: Phaedon test (PHAECO spray treatment)
# Assay type: in vivo
# Details: Example D; 4 ppm active compound; sprayed Chinese cabbage discs
# Procedure: Phaedon Test (PHAECO Spray Treatment)
# • Solvents: 78 parts by weight of acetone • 1.5 parts by weight of dimethylformamide • Emulsifier: 0.5 part by weight of alkylaryl polyglyycol ether
# After the desired period of time, the effect in % is determined. 100% means that all beetle larvae have been killed; 0% means that none of the beetle larvae have been killed.
row,Structure (SMILES),Kill rate in % after 7 days
1,CC[C@H](C)[C@H]1OC2(C=C[C@@H]1C)C[C@@H]1C[C@@H](C/C=C(\C)[C@@H](OC3CC(OC)C(OC(=O)Cn4ccnn4)C(C)O3)[C@@H](C)/C=C/C=C3\CO[C@@H]4[C@H](O)C(C)=CC(C(=O)O1)[C@]34O)O2 (stereo partly drawn) [Example 3],80%

# Same assay, conditions: Example G; 4 ppm active compound; sprayed Chinese cabbage discs
row,Structure (SMILES),Kill rate in % after 7 days
1,CC[C@H](C)[C@H]1OC2(C=C[C@@H]1C)C[C@@H]1C[C@@H](C/C=C(\C)[C@@H](OC3CC(OC)C(OC(=O)Cn4c(C)ccc4C)C(C)O3)[C@@H](C)/C=C/C=C3\CO[C@@H]4[C@H](O)C(C)=CC(C(=O)O1)[C@]34O)O2 (stereo partly drawn) [Example 44],100%
2,CC[C@H](C)[C@H]1OC2(C=C[C@@H]1C)C[C@@H]1C[C@@H](C/C=C(\C)[C@@H](OC3CC(OC)C(OC(=O)Cn4nc(OC)n(C)c4=O)C(C)O3)[C@@H](C)/C=C/C=C3\CO[C@@H]4[C@H](O)C(C)=CC(C(=O)O1)[C@]34O)O2 (stereo partly drawn) [Example 64],100%
3,CC[C@H](C)[C@H]1OC2(C=C[C@@H]1C)C[C@@H]1C[C@@H](C/C=C(\C)[C@@H](OC3CC(OC)C(OC(=O)CNC)C(C)O3)[C@@H](C)/C=C/C=C3\CO[C@@H]4[C@H](O)C(C)=CC(C(=O)O1)[C@]34O)O2 (stereo partly drawn) [Example 104],100%
4,CCC(C)C1OC2(C=CC1C)CC1CC(CC=C(C)C(OC3CC(OC)C(OC(=O)C(C)N4CCN(C(=O)OC(C)(C)C)CC4)C(C)O3)C(C)C=CC=C3COC4C(O)C(C)=CC(C(=O)O1)C34O)O2 (mixture of isomers) [Example 77],100%
5,CC[C@H](C)[C@H]1OC2(C=C[C@@H]1C)C[C@@H]1C[C@@H](C/C=C(\C)[C@@H](OC3CC(OC)C(OC(=O)C(C)n4ccnn4)C(C)O3)[C@@H](C)/C=C/C=C3\CO[C@@H]4[C@H](O)C(C)=CC(C(=O)O1)[C@]34O)O2 (stereo partly drawn) [Example 56],100%
6,CC[C@H](C)[C@H]1OC2(C=C[C@@H]1C)C[C@@H]1C[C@@H](C/C=C(\C)[C@@H](OC3CC(OC)C(OC(=O)C(C)n4cccn4)C(C)O3)[C@@H](C)/C=C/C=C3\CO[C@@H]4[C@H](O)C(C)=CC(C(=O)O1)[C@]34O)O2 (stereo partly drawn) [Example 62],100%
7,CC[C@H](C)[C@H]1OC2(C=C[C@@H]1C)C[C@@H]1C[C@@H](C/C=C(\C)[C@@H](OC3CC(OC)C(OC(=O)CC4CCCO4)C(C)O3)[C@@H](C)/C=C/C=C3\CO[C@@H]4[C@H](O)C(C)=CC(C(=O)O1)[C@]34O)O2 (stereo partly drawn) [Example 31],100%
8,CC[C@H](C)[C@H]1OC2(C=C[C@@H]1C)C[C@@H]1C[C@@H](C/C=C(\C)[C@@H](OC3CC(OC)C(OC(=O)C(C)n4ccnc4)C(C)O3)[C@@H](C)/C=C/C=C3\CO[C@@H]4[C@H](O)C(C)=CC(C(=O)O1)[C@]34O)O2 (stereo partly drawn) [Example 58],100%
9,CC[C@H](C)[C@H]1OC2(C=C[C@@H]1C)C[C@@H]1C[C@@H](C/C=C(\C)[C@@H](OC3CC(OC)C(OC(=O)Cc4ccccn4)C(C)O3)[C@@H](C)/C=C/C=C3\CO[C@@H]4[C@H](O)C(C)=CC(C(=O)O1)[C@]34O)O2 (stereo partly drawn) [Example 65],100%
10,CC[C@H](C)[C@H]1OC2(C=C[C@@H]1C)C[C@@H]1C[C@@H](C/C=C(\C)[C@@H](OC3CC(OC)C(OC(=O)Cc4c(C)noc4C)C(C)O3)[C@@H](C)/C=C/C=C3\CO[C@@H]4[C@H](O)C(C)=CC(C(=O)O1)[C@]34O)O2 (stereo partly drawn) [Example 43],100%
11,CC[C@H](C)[C@H]1OC2(CC[C@@H]1C)C[C@@H]1C[C@@H](C/C=C(\C)[C@@H](OC3CC(OC)C(OC(=O)Cn4cccn4)C(C)O3)[C@@H](C)/C=C/C=C3\CO[C@@H]4[C@H](O)C(C)=CC(C(=O)O1)[C@]34O)O2 (stereo partly drawn) [Example 22],100%
12,CC[C@H](C)[C@H]1OC2(C=C[C@@H]1C)C[C@@H]1C[C@@H](C/C=C(\C)[C@@H](OC3CC(OC)C(OC(=O)Cn4nc(C(F)(F)F)cc4OC)C(C)O3)[C@@H](C)/C=C/C=C3\CO[C@@H]4[C@H](O)C(C)=CC(C(=O)O1)[C@]34O)O2 (stereo partly drawn) [Example 41],83%
13,CC[C@H](C)[C@H]1OC2(C=C[C@@H]1C)C[C@@H]1C[C@@H](C/C=C(\C)[C@@H](OC3CC(OC)C(OC(=O)CN4CCC(NC(=O)OC(C)(C)C)CC4)C(C)O3)[C@@H](C)/C=C/C=C3\CO[C@@H]4[C@H](O)C(C)=CC(C(=O)O1)[C@]34O)O2 (stereo partly drawn) [Example 51],100%
14,CC[C@H](C)[C@H]1OC2(C=C[C@@H]1C)C[C@@H]1C[C@@H](C/C=C(\C)[C@@H](OC3CC(OC)C(OC(=O)C(C)n4ccnn4)C(C)O3)[C@@H](C)/C=C/C=C3\CO[C@@H]4[C@H](O)C(C)=CC(C(=O)O1)[C@]34O)O2 (stereo partly drawn) [Example 61],100%
15,CC[C@H](C)[C@H]1OC2(C=C[C@@H]1C)C[C@@H]1C[C@@H](C/C=C(\C)[C@@H](OC3CC(OC)C(OC(=O)Cn4nc(C)n(C)c4=O)C(C)O3)[C@@H](C)/C=C/C=C3\CO[C@@H]4[C@H](O)C(C)=CC(C(=O)O1)[C@]34O)O2 (stereo partly drawn) [Example 63],100%
16,CC[C@H](C)[C@H]1OC2(C=C[C@@H]1C)C[C@@H]1C[C@@H](C/C=C(\C)[C@@H](OC3CC(OC)C(OC(=O)CN4CCOCC4)C(C)O3)[C@@H](C)/C=C/C=C3\CO[C@@H]4[C@H](O)C(C)=CC(C(=O)O1)[C@]34O)O2 (stereo partly drawn) [Example 79],100%
17,"CC[C@H](C)[C@H]1OC2(C=C[C@@H]1C)C[C@@H]1C[C@@H](C/C=C(\C)[C@@H](OC3CC(OC)C(OC(=O)CN4CCN(C(=O)OC(C)(C)C)CC4)C(C)O3)[C@@H](C)/C=C/C=C3\CO[C@@H]4[C@H](O)C(C)=CC(C(=O)O1)[C@]34O)O2 (stereo partly drawn) [Example 53, 4′-O-{[4-(tert-Butoxycarbonyl)piperazin-1-yl]acetyl}-avermectin B1 monosaccharide]",100%
18,CC[C@H](C)[C@H]1OC2(C=C[C@@H]1C)C[C@@H]1C[C@@H](C/C=C(\C)[C@@H](OC3CC(OC)C(OC(=O)C4CC4(Cl)Cl)C(C)O3)[C@@H](C)/C=C/C=C3\CO[C@@H]4[C@H](O)C(C)=CC(C(=O)O1)[C@]34O)O2 (stereo partly drawn) [Example 37],100%
19,"CC[C@H](C)[C@H]1OC2(C=C[C@@H]1C)C[C@@H]1C[C@@H](C/C=C(\C)[C@@H](OC3CC(OC)C(OC(=O)CN4CCNCC4)C(C)O3)[C@@H](C)/C=C/C=C3\CO[C@@H]4[C@H](O)C(C)=CC(C(=O)O1)[C@]34O)O2 (stereo partly drawn) [Example 101, 4′-O-(piperazin-1-ylacetyl)-avermectin B1 monosaccharide]",100%
